# Experimental data reported in paper PMC9579956 (RSC Medicinal Chemistry, 2022).
# Biological target: Mycobacterium thermoresistible (Mtr) LpqY (Mycolicibacterium thermoresistibile, UniProt G7CES0)
# Assay type: binding
# Conditions: single dose MST screen against LpqY
# Chain of Mycobacterium thermoresistible (Mtr) LpqY (G7CES0 29-471): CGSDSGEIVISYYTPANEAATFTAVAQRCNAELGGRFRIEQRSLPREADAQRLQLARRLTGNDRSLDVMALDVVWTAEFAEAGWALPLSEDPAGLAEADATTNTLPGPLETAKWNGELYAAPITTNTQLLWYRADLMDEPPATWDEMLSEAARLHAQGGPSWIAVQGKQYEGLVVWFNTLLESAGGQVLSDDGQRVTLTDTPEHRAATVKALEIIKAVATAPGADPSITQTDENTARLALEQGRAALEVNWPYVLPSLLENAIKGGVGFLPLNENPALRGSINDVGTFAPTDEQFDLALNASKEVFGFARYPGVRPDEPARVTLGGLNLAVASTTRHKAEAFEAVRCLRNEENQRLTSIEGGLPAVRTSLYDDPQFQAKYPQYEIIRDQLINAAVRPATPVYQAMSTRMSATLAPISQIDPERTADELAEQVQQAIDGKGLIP
smiles,measurement,value
CC(=O)OC[C@H]1O[C@@H]([S-])[C@H](OC(C)=O)[C@@H](OC(C)=O)[C@@H]1OC(C)=O.CC[PH+](CC)CC.[Au] [MMV688978],Pathogen Box screen signal/noise ratio,0.85
Cc1ccc2[nH]c(C3CCCNC3)c(-c3ccncc3)c2c1 (stereo not drawn) [MMV024311],Pathogen Box screen signal/noise ratio,0.4
CC(C)=CCC/C(C)=C\CNCCNC1C2CC3CC(C2)CC1C3 (stereo not drawn) [MMV687273],Pathogen Box screen signal/noise ratio,1.3
CC1=Nc2ccc(Cl)cc2C(O)(c2ccc(C)cc2)N1CCN1CCCCC1 (stereo not drawn) [MMV688279],Pathogen Box screen signal/noise ratio,0.8
COC(=O)c1cccc2oc(-c3cccc(OC)c3NC(=O)c3cc(-c4ccccc4)on3)nc12 [MMV676186],Pathogen Box screen signal/noise ratio,0.1
CCCNC(=O)N1CCC2(CC1)CC(=O)c1cc(C)ccc1O2 [MMV085230],Pathogen Box screen signal/noise ratio,1.0
O=C(NCCN1CCCC1)c1cc(NCCN2CCOCC2)nc2ccc(Cl)cc12 [MMV634140],Pathogen Box screen signal/noise ratio,0.9
COc1ccc(C2(C(=O)Nc3ccc(Br)cc3)CCCC2)cc1 [MMV200748],Pathogen Box screen signal/noise ratio,1.4
O=C(Nc1nc(-c2ccccn2)cs1)C1CC1c1ccccc1F (stereo not drawn) [MMV1028806],Pathogen Box screen signal/noise ratio,0.225
CC(C)(CN)c1nc(-c2ccc(Cl)c(O)c2)c(-c2ccnc(N)n2)[nH]1 [MMV030734],Pathogen Box screen signal/noise ratio,3.5
COc1cc(C2=NCCN2)ccc1-n1cc(-c2cccc(C3=NCCN3)c2)nn1 [MMV688474],Pathogen Box screen signal/noise ratio,0.217
CC(Oc1ccccc1)C(=O)Nc1nc(-c2ccccn2)cs1 (stereo not drawn) [MMV676411],Pathogen Box screen signal/noise ratio,0.0833
Cc1ccc(S(=O)(=O)Nc2ccc(CN3CCN(C(=O)c4cccc(C#N)c4)CC3)cc2)cc1 [MMV689028],Pathogen Box screen signal/noise ratio,-0.5
FC(F)(F)c1cccc(-c2nc3c(NCc4ccncc4)nccc3[nH]2)c1 [MMV032967],Pathogen Box screen signal/noise ratio,3.3
CO/N=C(\C(=O)OC)c1ccccc1CO/N=C(\C)c1cccc(C(F)(F)F)c1 [MMV688754],Pathogen Box screen signal/noise ratio,1.2
CC(C)(C)n1nc(Cc2ccc(F)c(Cl)c2)c2c(N)ncnc21 [MMV688852],Pathogen Box screen signal/noise ratio,0.7
Cc1cc2nc(NC(=O)C(C)(C)C)nc(Cl)c2n1Cc1ccc(Cl)cc1 [MMV688704],Pathogen Box screen signal/noise ratio,1.2
COc1ccc2nc(C)cc(OCC(=O)Nc3ccccc3OC)c2c1 [MMV687188],Pathogen Box screen signal/noise ratio,1.7
Nc1ncnc2c1ncn2C[C@@H](O)[C@@H](O)C(=O)O [MMV689255],Pathogen Box screen signal/noise ratio,2.5
C[C@H](c1ccc2c(c1)CCCC2)N(C)c1ncc2c(N)nc(N)nc2n1 [MMV690103],Pathogen Box screen signal/noise ratio,1.5
Cc1ccc(NC(=O)c2cc(S(=O)(=O)NC(C)(C)C)ccc2C)nc1 [MMV020289],Pathogen Box screen signal/noise ratio,1.4
CC(C)(C)CN1C(=O)C(c2ccccc2)(c2ccccc2)N=C1N [MMV026550],Pathogen Box screen signal/noise ratio,0.455
CC1COC2(CCN(c3nc(=O)c4cc(C(F)(F)F)cc([N+](=O)[O-])c4s3)CC2)O1 (stereo not drawn) [MMV676603],Pathogen Box screen signal/noise ratio,1.8
Brc1cncc(-c2cc(NCCCn3ccnc3)nc(-c3ccccc3)n2)c1 [MMV661713],Pathogen Box screen signal/noise ratio,0.5
CC1(COc2ccc(N3CCC(Oc4ccc(OC(F)(F)F)cc4)CC3)cc2)Cn2cc([N+](=O)[O-])nc2O1 (stereo not drawn) [MMV688262],Pathogen Box screen signal/noise ratio,0.232
CC(=O)N1CCN(c2ccc(Oc3ccc(Cl)cc3O)cc2)CC1 [MMV688330],Pathogen Box screen signal/noise ratio,1.8
CCc1nc2ccccc2n1CC(O)COc1cc(C)ccc1Cl (stereo not drawn) [MMV676449],Pathogen Box screen signal/noise ratio,1.2
COc1ccccc1CNC(=O)c1cc(C2CC2)nc2c1cnn2C(C)C [MMV020517],Pathogen Box screen signal/noise ratio,2.3
Cc1cc(Cl)ccc1NC(=O)CCc1ccc(S(=O)(=O)NCC(C)C)cc1 [MMV161996],Pathogen Box screen signal/noise ratio,1.2
CS(=O)(=O)N1CCC(Cn2nc(Cc3cccc4ccccc34)c3c(N)ncnc32)CC1 [MMV676050],Pathogen Box screen signal/noise ratio,0.8
CCC(NC(=O)c1ccccc1NC(=O)c1ccc(C)cc1)C(=O)OC (stereo not drawn) [MMV019551],Pathogen Box screen signal/noise ratio,0.267
c1ccc(Oc2ccc(-c3cncc(-c4ccc5[nH]ccc5c4)n3)cc2)cc1 [MMV688178],Pathogen Box screen signal/noise ratio,1.0
Cc1cc(NCC(C)C)c2n[nH]c(-c3ccccc3)c2n1 [MMV021375],Pathogen Box screen signal/noise ratio,0.9
Nc1nc(N)c2c3c(sc2n1)CN(Cc1ccccc1)CC3 [MMV688345],Pathogen Box screen signal/noise ratio,2.8
CN1CCN(S(=O)(=O)c2ccc(-c3ccc4c(Nc5ccc6nn[nH]c6c5)ccnc4c3)cc2)CC1 [MMV687246],Pathogen Box screen signal/noise ratio,2.8
NCCCC(N)(C(=O)O)C(F)F (stereo not drawn) [MMV001625],Pathogen Box screen signal/noise ratio,0.316
C[C@H]1COc2c(N3CCN(C)CC3)c(F)cc3c(=O)c(C(=O)O)cn1c23 [MMV687798],Pathogen Box screen signal/noise ratio,0.9
CC(=O)N1CCc2cc3nc(C)cc(C)c3cc21 [MMV054312],Pathogen Box screen signal/noise ratio,0.107
Cc1nnc(NCc2cccc(Cl)c2)c2ccccc12 [MMV676555],Pathogen Box screen signal/noise ratio,0.9
CCCCS(=O)(=O)Nc1ccc2cnn(C)c2c1 [MMV687145],Pathogen Box screen signal/noise ratio,1.4
COc1ccc(CN2CCOc3ccc(C(C)(O)CN(C)C)cc3C2)cc1C (stereo not drawn) [MMV008439],Pathogen Box screen signal/noise ratio,0.222
CC(C)(C)c1cnc(NC(=O)c2ccccc2O)s1 [MMV495543],Pathogen Box screen signal/noise ratio,0.8
O=C1Nc2ccc(Br)cc2C12NCCc1c2[nH]c2ccccc12 (stereo not drawn) [MMV006239],Pathogen Box screen signal/noise ratio,2.0
Cc1cccc(NC(=O)c2cc(S(=O)(=O)N(C)c3ccc(F)cc3)ccc2Cl)n1 [MMV676528],Pathogen Box screen signal/noise ratio,1.1
Cc1ccc(NC(=O)c2nc[nH]c2C(=O)Nc2nc3ccccc3[nH]2)c(C)c1 [MMV011903],Pathogen Box screen signal/noise ratio,1.4
O=C1[C@@H](Oc2ccccc2)[C@@H](c2ccc(Cl)cc2)N1CCn1cnc2c(NCc3ccccc3)ncnc21 [MMV688352],Pathogen Box screen signal/noise ratio,0.212
CO[C@@H](C(=O)N1Cc2[nH]nc(NC(=O)c3ccc(N4CCN(C)CC4)cc3)c2C1)c1ccccc1 [MMV676600],Pathogen Box screen signal/noise ratio,0.6
COc1ccc(Cl)cc1NC(=O)CN(C)C(=O)c1cnn(-c2ccccc2)n1 [MMV020710],Pathogen Box screen signal/noise ratio,1.8
NCCC(O)C(=O)N[C@@H]1C[C@H](N)[C@@H](OC2O[C@H](CN)[C@@H](O)[C@H](O)[C@H]2O)[C@H](O)C1OC1O[C@H](CO)[C@@H](O)[C@H](N)[C@H]1O (stereo partly drawn) [MMV687796],Pathogen Box screen signal/noise ratio,1.2
Clc1ccc(Cl)c(CO[C@H]2CCCC[C@@H]2n2ccnc2)c1 [MMV676048],Pathogen Box screen signal/noise ratio,1.1
c1ccc(-c2[nH]c3ccccc3c2C(c2ccccn2)N2CCCC2)cc1 (stereo not drawn) [MMV688762],Pathogen Box screen signal/noise ratio,0.9
CCCCOC(=O)Nc1cc2nc(C3CCCCC3)[nH]c2cc1N1CCCC1 [MMV687730],Pathogen Box screen signal/noise ratio,1.3
FC(F)(F)c1ccc(N(c2cccnc2)C2CCN(c3ccc(C(F)(F)F)cn3)CC2)cc1 [MMV689243],Pathogen Box screen signal/noise ratio,1.4
CCOc1ccc2cc(-c3nn(C(C)(C)C)c(N)c3C(N)=O)cnc2c1 [MMV688853],Pathogen Box screen signal/noise ratio,3.8
COc1cc(NC(=O)Cc2nn(C)c(=O)c3ccccc23)ccc1Cl [MMV676053],Pathogen Box screen signal/noise ratio,1.3
CO[C@H]1/C=C/O[C@@]2(C)Oc3c(C)c(O)c4c(O)c(/c(=C/NN5CCN(C)CC5)c(O)c4c3C2=O)=N\C(=O)/C(C)=C\C=C/[C@H](C)[C@H](O)[C@@H](C)[C@@H](O)[C@@H](C)[C@H](OC(C)=O)[C@@H]1C [MMV688775],Pathogen Box screen signal/noise ratio,1.1
Cc1ccccc1CN1CCC(O)(c2ccc(Cl)c(C(F)(F)F)c2)CC1 [MMV688846],Pathogen Box screen signal/noise ratio,0.25
CC(C)(C)OC(=O)N1CCN(c2cc(-c3ccc(Oc4ccccc4)cc3)n[nH]2)CC1 [MMV676057],Pathogen Box screen signal/noise ratio,1.2
CCn1ncc2c(NC3CCOCC3)c(CNC(=O)c3ccnn3C)c(C)nc21 [MMV026356],Pathogen Box screen signal/noise ratio,0.6
CCc1nc2ccc(C(=O)NCc3ccc4c(c3)OCO4)cn2c1N(C)Cc1cccs1 [MMV407539],Pathogen Box screen signal/noise ratio,0.241
CC(C)c1ncc(-c2ccncc2)c([C@H]2CC[C@H](CNC(=O)c3cccnc3)CC2)n1 [MMV676442],Pathogen Box screen signal/noise ratio,0.8
O=C(NC1CCCCC1)N1CCN(Cc2ccc3c(c2)OCO3)CC1 [MMV676444],Pathogen Box screen signal/noise ratio,1.3
CCOc1ccc(OCC(=O)Nc2cc(C)cc(C)c2)cc1 [MMV676470],Pathogen Box screen signal/noise ratio,0.2
OCCc1ccc(Nc2nccc(-c3nnc4ccccn34)n2)cc1 [MMV028694],Pathogen Box screen signal/noise ratio,1.5
CCc1c(C)nc(-n2nc(C)cc2NC(=O)c2ccccc2SC)[nH]c1=O [MMV676477],Pathogen Box screen signal/noise ratio,0.7
N=C(N)Nc1ccc(-c2ccc(-c3ccc(NC(=N)N)cc3Cl)o2)c(Cl)c1 [MMV688179],Pathogen Box screen signal/noise ratio,2.0
CC(C)(C)OC(=O)N1CCC(Cn2nc(-c3cnc4ccccc4c3)c3c(N)ncnc32)CC1 [MMV688364],Pathogen Box screen signal/noise ratio,0.6
COC(=O)c1ccc(F)cc1NS(=O)(=O)c1cccc(-c2cnn(Cc3ccccc3)c2)c1 [MMV688350],Pathogen Box screen signal/noise ratio,1.5
COc1nc2ccc(Br)cc2cc1[C@@H](c1ccccc1)[C@@](O)(CCN(C)C)c1cccc2ccccc12 [MMV689758],Pathogen Box screen signal/noise ratio,0.444
